These results are taken from US20160176867A1, “MODIFIED BET-PROTEIN-INHIBITING DIHYDROQUINOXALINONES AND DIHYDROPYRIDOPYRAZINONES” (BAYER PHARMA AKTIENGESELLSCHAFT, priority 2013, published 2016).

Assay [1] has as its system B16F10 cells. Description: Cell proliferation assay (alamarBlue), B16F10. It counts as cell-based. Conditions: Mus musculus, B16-F10; B16F10 (melanoma, BRAF wild-type), 96 hours. How it is done:
(§1) In accordance with the invention, the ability of the substances to inhibit cell proliferation was determined. Cell viability was determined by means of the alamarBlue® reagent (Invitrogen) in a Victor X3 Multilabel Reader (Perkin Elmer). The excitation wavelength was 530 nm and the emission wavelength […].
The B16F10 cells (ATCC, CRL-6475) were sown at a concentration of 300-500 cells/well in 100 μl of growth medium (DMEM with phenol red, 10% FCS) on 96-well microtitre plates.
(§2) After overnight incubation at 37° C., the fluorescence values were determined (CI values). Then the plates were treated with various substance dilutions (1E-5 M, 3E-6 M, 1E-6 M, 3E-7 M, 1E-7 M, 3E-8 M, 1E-8 M) and incubated at 37° C. over 96 hours (MOLM-13, B16F10, CHL-1 cells) or 120 hours (MOLP-8 cells). Subsequently, the fluorescence values were determined (CO values). For the data analysis, the CI values were subtracted from the CO values and the results were compared between cells which had been treated with various dilutions of the substance or only with buffer solution. The IC50 values (substance concentration needed for 50% inhibition of cell proliferation) were calculated therefrom.
A general note: Resazurin is reduced to fluorescent resorufin, in cell work by metabolically active cells.

For assay [2], the system named is MOLM-13 cells. Description: Cell proliferation assay (alamarBlue), MOLM-13. It counts as cell-based. Conditions: Homo sapiens; MOLM-13 (acute myeloid leukaemia), 96 hours. The procedure:
as §1
The MOLM-13 cells (DSMZ, ACC 554) were sown at a concentration of 4000 cells/well in 100 μl of growth medium (RPMI1640, 10% FCS) on 96-well microtitre plates.
as §2

The subject of assay [3] is MOLP-8 cells. Description: Cell proliferation assay (alamarBlue), MOLP-8. Type of assay: cell-based. As to conditions: Homo sapiens; MOLP-8 (multiple myeloma), 120 hours. The procedure:
as §1
The MOLP-8 cells (DSMZ, ACC 569) were sown at a concentration of 4000 cells/well in 100 μl of growth medium (RPMI1640, 20% FCS) on 96-well microtitre plates.
as §2

The target of assay [4] is T1, BRD4 bromo domain 1 [BRD4(1)] (Homo sapiens, UniProt O60885).
T1 construct: N-terminally His6-tagged BRD4(1) (amino acids 67-152); made in house; host or cells: E. coli
Description: BRD4/acetylated peptide H4 binding assay (TR-FRET), BRD4 bromo domain 1. Conditions: inhibition of BRD4(1)/Ac-H4 peptide interaction. The method, boiled down: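 TR-FRET (665/620 nm ratio) measuring displacement of biotinylated tetra-acetylated H4 peptide from His6-BRD4(1) (aa 67-152, E. coli; typically 10 nM) at pH 7.5. Compound (11 concentrations, 0.1 nM–20 μM, duplicates) was preincubated 10 min at 22°C, then 1 h at 22°C and ≥3 h at 4°C; IC50 from 4-parameter fit normalized to DMSO and no-BRD4 controls.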
On the technique in general: TR-FRET usually uses a lanthanide donor and a delayed reading to cut background.

In the case of `CC(C)N1c2nc(Nc3cccc(S(=O)(=O)N[C@H]4CC[C@H](N5CCN(CC6CC6)CC5)CC4)c3)ccc2N(C)C(=O)[C@H]1C` [Example 34, N-{trans-4-[4-(cyclopropylmethyl)piperazin-1-yl]cyclohexyl}-3-{[(3R)-4-isopropyl-1,3-dimethyl-2-oxo-1,2,3,4-tetrahydropyrido[2,3-b]pyrazin-6-yl]amino}-benzenesulphonamide], the concentration for half-maximal inhibition (IC50) (in general, the concentration needed to halve the response being measured) in assay [1] was 0.202 µM; in assay [2], 0.055 µM; in assay [3], 0.02 µM; in assay [4], 0.023 µM.
As to `C[C@@H]1C(=O)N(C)c2ccc(Nc3cccc(S(=O)(=O)N[C@H]4CC[C@H](N5CCN(CC6CC6)CC5)CC4)c3)nc2N1C1CCOCC1` [Example 35, N-{trans-4-[4-(cyclopropylmethyl)-piperazin-1-yl]cyclohexyl}-3-{[(3R)-1,3-dimethyl-2-oxo-4-(tetrahydro-2H-pyran-4-yl)-1,2,3,4-tetrahydropyrido[2,3-b]pyrazin-6-yl]amino}-benzenesulphonamide], the IC50 in assay [1] was determined as 0.146 µM; in assay [2] it was 0.14 µM; in assay [3], 0.023 µM; in assay [4] it was 0.026 µM.
For the compound `CC(C)N1c2nc(Nc3cccc(S(=O)(=O)N4CCN(C)CC4)c3)ccc2N(C)C(=O)[C@H]1C` [Example 43, (3R)-4-isopropyl-1,3-dimethyl-6-({3-[(4-methylpiperazin-1-yl)sulphonyl]phenyl}-amino)-3,4-dihydropyrido-[2,3-b]pyrazin-2(1H)-one], the IC50 turned out to be 0.537 µM in assay [1], 0.196 µM in assay [2], 0.144 µM in assay [3] and 0.049 µM in assay [4].
In the same order, the values of `CC(C)N1c2nc(Nc3cccc(S(=O)(=O)NC4CCN(C)CC4)c3)ccc2N(C)C(=O)[C@H]1C` [Example 51, 3-{[(3R)-4-isopropyl-1,3-dimethyl-2-oxo-1,2,3,4-tetrahydropyrido[2,3-b]pyrazin-6-yl]amino}-N-(1-methylpiperidin-4-yl)benzenesulphonamide] are 0.423 µM, 0.097 µM, 0.058 µM and 0.077 µM.
As for `CC(C)N1c2nc(Nc3cccc(S(=O)(=O)NCCN(C)C)c3)ccc2N(C)C(=O)[C@H]1C` [Example 55, N-[2-(dimethylamino)-ethyl]-3-{[(3R)-4-isopropyl-1,3-dimethyl-2-oxo-1,2,3,4-tetrahydro-pyrido[2,3-b]pyrazin-6-yl]amino}benzene-sulphonamide], the IC50 came to 0.312 µM in assay [1], 0.078 µM in assay [2], 0.048 µM in assay [3] and 0.112 µM in assay [4].
Turning to `CC(C)N1c2nc(Nc3cccc(C(=O)N4CCN(C)CC4)c3)ccc2N(C)C(=O)[C@H]1C` [Example 77, (3R)-4-isopropl-1,3-dimethyl-6-({3-[(4-methylpiperazin-1-yl)carbonyl]phenyl}-amino)-3,4-dihydro-pyrido[2,3-b]pyrazin-2(1H)-one], the IC50 stood at 0.973 µM in assay [1], 1.01 µM in assay [2], 0.494 µM in assay [3] and 0.144 µM in assay [4].
On to `CC(C)N1c2nc(Nc3cccc(C(=O)N[C@H]4CC[C@H](N5CCN(CC6CC6)CC5)CC4)c3)ccc2N(C)C(=O)[C@H]1C` [Example 79, N-{trans-4-[4-(cyclo-propylmethyl)piperazin-1-yl]cyclohexyl}-3-{[(3R)-4-isopropyl-1,3-dimethyl-2-oxo-1,2,3,4-tetrahydropyrido[2,3-b]pyrazin-6-yl]amino}benzamide], for which the IC50 was 0.478 µM in assay [1], 0.287 µM in assay [2], 0.077 µM in assay [3] and 0.193 µM in assay [4].
Turning to `CC(C)N1c2nc(Nc3cccc(C(=O)N4CCN(CC5CC5)CC4)c3)ccc2N(C)C(=O)[C@H]1C` [Example 88, (3R)-6-[(3-{[4-(cyclo-propylmethyl)piperazin-1-yl]carbonyl}phenyl)amino]-4-isopropyl-1,3-dimethyl-3,4-dihydropyrido[2,3-b]pyrazin-2(1H)-one], the half-maximal inhibitory concentration (IC50) in assay [1] was determined as 1.62 µM; in assay [2], 2.08 µM; in assay [3] it was 0.876 µM; in assay [4], 0.382 µM.
